Starred links: 1 amine or outer side, 2 acyl side, 3 side chain; linkers in the order of their positions; H or OH if unused. Positions of bridges follow the written chain, without caps; N, C: chain ends. Non-standard residues stand in square brackets, D forms with d. Residues, ends and D or L forms follow the SMILES beside them. *: point of attachment. βAsp = O=C(O)[C@H](CC(=O)[*:2])N[*:1]; His(π-Me) = Cn1cncc1C[C@H](N)C(=O)O; For = O=C*

The values that follow come from publication PMC9844538 (Nature chemical biology, 2022).

Test [1] has as its system Mycobacterium tuberculosis H37Rv mc^26020 gyrA G88C. Put plainly: MIC, broth microdilution. The format is cell-based.
In test [2] the test system is Mycobacterium tuberculosis H37Rv mc^26020 gyrA G88S. Put plainly: MIC, broth microdilution. The test is classed as cell-based. In general terms: Dilution methods test growth across graded concentrations, often in twofold steps.
Test [3] deals with M. tuberculosis bacA (Rv1819c) mutants (L469P, L470P and S577R). The test is classed as cell-based, Mycobacterium tuberculosis.
Test [4] concerns M. tuberculosis (GyrA D94N). The format is cell-based, Mycobacterium tuberculosis.

Turning to `COc1c(N2C[C@@H]3CCCN[C@@H]3C2)c(F)cc2c(=O)c(C(=O)O)cn(C3CC3)c12` [moxifloxacin], the “susceptibility of GyrA G88C mutant” value in test [1] is “resistant”. For the same molecule, the “susceptibility of GyrA G88S mutant” value in test [2] is “more susceptible”.
On to bleomycin, for which, in test [3], the “MIC (after shift)” value came out at 1 µg/mL.
In the case of `C[C@@H](O)[C@H](NC(=O)[C@H](Cc1c[nH]c2ccccc12)NC=O)C(=O)N[C@H](CCCNC(=N)N)C(=O)N[C@@H]1C(=O)N[C@@H](Cc2cncn2C)C(=O)N[C@H](C(=O)O)CC(=O)N[C@H](CO)C(=O)N[C@@H](Cc2ccccc2)C(=O)NCC(=O)N[C@H](CCCNC(=N)N)C(=O)N[C@@H](CO)C(=O)N[C@H](C(=O)O)CC(=O)O[C@@H]1C` [evybactin] (For-WT[dR]T[His(π-Me)][βAsp][dS]FG[dR]S[βAsp]; ester 4-C), the “effect of GyrA D94N mutation on susceptibility” value in test [4] was “did not have any effect”.
